The source of these data is patent publication US11292791B2 (priority 2017, dated 2022).

The assay deals with BRD4 (Homo sapiens (Human), UniProt O60885). The following applies: read-out: BRD4 IC50 (μM gmean).
One may read the IC50 as the concentration at which inhibition is half-maximal. Take `COC(=O)N1c2ccc3c(nc(CC(C(=O)O)c4cccc(F)c4)n3C3CCCOC3)c2CC[C@@H]1C` (some centres unmarked) [Example 728]: the IC50 fell in the range of 1 to 1000 µM.
With `COC(=O)N1c2ccc3c(nc(CC4CCC(OC)CC4)n3C3CCC(C(=O)O)CC3)c2CC[C@@H]1C` (some centres unmarked) [Example 729], the IC50 is 1 to 1000 µM.
As to `COC(=O)N1c2ccc3c(nc(C(C)C(=O)N4CCCC4)n3C3CCCC(C(=O)O)C3)c2CC[C@@H]1C` (some centres unmarked) [Example 732], the IC50 was 1 to 1000 µM.
With `COC(=O)N1c2ccc3c(nc(Cn4cc(C5CC5)cn4)n3[C@H]3CC[C@H](C(=O)O)CC3)c2CC[C@@H]1C` [Example 733] the figure was 1 to 1000 µM; with `COC(=O)N1c2ccc3c(nc(Cn4cc(Cl)cn4)n3[C@H]3CC[C@H](C(=O)O)CC3)c2CC[C@@H]1C` [Example 737], 1 to 1000 µM.
With `COC(=O)N1c2ccc3c(nc(Cc4cnc(C)cn4)n3[C@@H]3CCC[C@@H](C(=O)O)C3)c2CC[C@@H]1C` [Example 738], the IC50 was in the range of 1 to 1000 µM.
Take `COC(=O)N1c2ccc3c(nc(Cc4ccc(OC)c(OC)c4)n3[C@H]3CC[C@H](C(=O)O)CC3)c2CC[C@@H]1C` [Example 740]: the IC50 was 1 to 1000 µM.
Turning to `COC(=O)N1c2ccc3c(nc(COC4CCOCC4)n3[C@@H]3CCC[C@@H](C(=O)O)C3)c2CC[C@@H]1C` [Example 741], the IC50 was in the range of 1 to 1000 µM.
In the case of `COC(=O)N1c2ccc3c(nc(C(C)Cc4cnn(C)c4)n3C3CCCC(C(=O)O)C3)c2CC[C@@H]1C` (some centres unmarked) [Example 742], the IC50 fell in the range of 1 to 1000 µM.
On to `COC(=O)N1c2ccc3c(nc(CCc4ccccc4C(=O)O)n3C3CCOCC3)c2CC[C@@H]1C` [Example 743], for which the IC50 was in the range of 1 to 1000 µM.
Turning to `COC(=O)N1c2ccc3c(nc(Cc4ccc(C#N)cc4)n3[C@H]3CC[C@H](C(=O)O)CC3)c2CC[C@@H]1C` [Example 744], the IC50 fell in the range of 1 to 1000 µM.
Consider `COC(=O)N1c2ccc3c(nc(Cc4cnc(Cl)c(C)n4)n3[C@@H]3CCC[C@@H](C(=O)O)C3)c2CC[C@@H]1C` [Example 745], for which the IC50 was in the range of 1 to 1000 µM.
In the case of `COC(=O)N1c2ccc3c(nc(C(C)(O)c4ccccn4)n3C3CCCC(C(=O)O)C3)c2CC[C@@H]1C` (some centres unmarked) [Example 749], the half-inhibitory concentration (IC50) fell in the range of 1 to 1000 µM.
Next, `COC(=O)N1c2ccc3c(nc(CC(C(=O)O)c4ccc(F)c(F)c4)n3C3CCCC3)c2CC[C@@H]1C` (some centres unmarked) [Example 751]: 1 to 1000 µM; `COC(=O)N1c2ccc3c(nc(COC4CCCC4)n3[C@H]3CC[C@H](C(=O)O)CC3)c2CC[C@@H]1C` [Example 752]: 1 to 1000 µM; `COC(=O)N1c2ccc3c(nc(C4(Cn5cccn5)CC4)n3[C@@H]3CCC[C@@H](C(=O)O)C3)c2CC[C@@H]1C` [Example 753]: 1 to 1000 µM.
Next, `COC(=O)N1c2ccc3c(nc(C(C)Cn4cccn4)n3C3CCS(=O)(=O)CC3)c2CC[C@@H]1C` (some centres unmarked) [Example 754]: 1 to 1000 µM.
For the molecule `COC(=O)N1c2ccc3c(nc(CC(C(=O)O)c4ccc(C(C)C)cc4)n3C3CCCOC3)c2CC[C@@H]1C` (some centres unmarked) [Example 756], the IC50 lay in the range of 1 to 1000 µM.
With `COC(=O)N1c2ccc3c(nc(CC(C(=O)O)c4ccccc4)n3C3CCCC(OC)C3)c2CC[C@@H]1C` (some centres unmarked) [Example 757] the figure was 1 to 1000 µM; with `COC(=O)N1c2ccc3c(nc(CN4CCc5ccccc5C4=O)n3[C@@H]3CCC[C@@H](C(=O)O)C3)c2CC[C@@H]1C` [Example 758], 1 to 1000 µM; with `COC(=O)N1c2ccc3c(nc(COC4CCOCC4)n3[C@H]3CC[C@H](C(=O)O)CC3)c2CC[C@@H]1C` [Example 759], 1 to 1000 µM.
Regarding `COC(=O)N1c2ccc3c(nc(C(O)C4CCCC4)n3C3CCCC(C(=O)O)C3)c2CC[C@@H]1C` (some centres unmarked) [Example 762], the IC50 is 1 to 1000 µM.
With `COC(=O)N1c2ccc3c(nc(N(C)c4ccc(C#N)cc4)n3[C@H]3CC[C@H](C(=O)O)CC3)c2CC[C@@H]1C` [Example 769] the figure was 1 to 1000 µM; with `COC(=O)N1c2ccc3c(nc(C(C)Cn4cccn4)n3C3CCS(=O)(=O)C3)c2CC[C@@H]1C` (some centres unmarked) [Example 771], 1 to 1000 µM; with `COC(=O)N1c2ccc3c(nc(C(C)Cn4cccn4)n3C3CCS(=O)(=O)C3)c2CC[C@@H]1C` (some centres unmarked) [Example 772], 1 to 1000 µM.
With `COC(=O)N1c2ccc3c(nc(CC(C(=O)O)c4ccc(F)cc4)n3C3CCCOC3)c2CC[C@@H]1C` (some centres unmarked) [Example 773] the figure was 1 to 1000 µM; with `COC(=O)N1c2ccc3c(nc(Cc4cncc(OC(C)C)c4)n3[C@@H]3CCC[C@@H](C(=O)O)C3)c2CC[C@@H]1C` [Example 775], 1 to 1000 µM.
For the molecule `COC(=O)N1c2ccc3c(nc(Cc4ccc(C(F)(F)F)nn4)n3[C@@H]3CCC[C@@H](C(=O)O)C3)c2CC[C@@H]1C` [Example 777], the IC50 lay within 1 to 1000 µM.
Next, `COC(=O)N1c2ccc3c(nc(Cc4ccccc4C(=O)O)n3C3CCOCC3)c2CC[C@@H]1C` [Example 778]: 1 to 1000 µM; `COC(=O)N1c2ccc3c(nc([C@@H](c4ccccc4)S(C)(=O)=O)n3[C@H]3CC[C@H](C(=O)O)CC3)c2CC[C@@H]1C` [Example 779]: 1 to 1000 µM; `COC(=O)N1c2ccc3c(nc(Cc4cccc(OC(C)C)n4)n3[C@H]3CC[C@H](C(=O)O)CC3)c2CC[C@@H]1C` [Example 780]: 1 to 1000 µM.
Next, `COC(=O)N1c2ccc3c(nc(C(C)Cn4ccc(C)n4)n3C3CCCC(C(=O)O)C3)c2CC[C@@H]1C` (some centres unmarked) [Example 782]: 1 to 1000 µM; `COC(=O)N1c2ccc3c(nc(CC(C(=O)O)c4ccc(C)c(F)c4)n3C3CCCOC3)c2CC[C@@H]1C` (some centres unmarked) [Example 783]: 1 to 1000 µM.
`COC(=O)N1c2ccc3c(nc(CCC4CCOCC4)n3[C@H]3CC[C@H](C(=O)O)CC3)c2CC[C@@H]1C` [Example 784]: the IC50 lay within 1 to 1000 µM.
Regarding `COC(=O)N1c2ccc3c(nc(CC(C(=O)O)c4ccc(C(F)F)cc4)n3C3COCC(F)(F)C3)c2CC[C@@H]1C` (some centres unmarked) [Example 785], the IC50 was 1 to 1000 µM.
Turning to `COC(=O)N1c2ccc3c(nc(CC(C(=O)O)c4ccccc4)n3-c3cccc(OC)c3)c2CC[C@@H]1C` (some centres unmarked) [Example 786], the IC50 lay in the range of 1 to 1000 µM.
For `COC(=O)N1c2ccc3c(nc(N(C)c4ccccc4)n3[C@@H]3CCC[C@@H](C(=O)O)C3)c2CC[C@@H]1C` [Example 787], the IC50 fell in the range of 1 to 1000 µM.
With `COC(=O)N1c2ccc3c(nc(CN4C(=O)CCc5ccccc54)n3[C@@H]3CCC[C@@H](C(=O)O)C3)c2CC[C@@H]1C` [Example 789], the IC50 fell in the range of 1 to 1000 µM.
Take `COC(=O)N1c2ccc3c(nc(CC(C(=O)O)c4ccccc4)n3C3CCCC(OC)C3)c2CC[C@@H]1C` (some centres unmarked) [Example 791]: the IC50 is 1 to 1000 µM.
Regarding `COC(=O)N1c2ccc3c(nc(OCc4ccccc4)n3[C@H]3CC[C@H](C(=O)O)CC3)c2CC[C@@H]1C` [Example 792], the IC50 was in the range of 1 to 1000 µM.
Take `COC(=O)N1c2ccc3c(nc(Cc4cnc5cc[nH]c5n4)n3[C@@H]3CCC[C@@H](C(=O)O)C3)c2CC[C@@H]1C` [Example 795]: the IC50 was in the range of 1 to 1000 µM.
Regarding `COC(=O)N1c2ccc3c(nc(CC(=O)N4CCCC4)n3[C@@H]3CCC[C@@H](C(=O)O)C3)c2CC[C@@H]1C` [Example 798], the IC50 fell in the range of 1 to 1000 µM.
Take `COC(=O)N1c2ccc3c(nc(Nc4cccc(F)c4)n3[C@@H]3CCC[C@@H](C(=O)O)C3)c2CC[C@@H]1C` [Example 802]: the IC50 fell in the range of 1 to 1000 µM.
Consider `COC(=O)N1c2ccc3c(nc(C(C)Cc4ccccc4)n3C3CCNCC3)c2CC[C@@H]1C` (some centres unmarked) [Example 803], for which the IC50 was 1 to 1000 µM.
